Laboratory results published in paper PMC9637864 (Current Research in Toxicology, 2022).
“Also recorded” adds a separate entry of the source. Read-outs that look alike come from different tables or passages of the source.

Experiments:
human FXRα [1] = molecular target: T1, human FXRα (Homo sapiens, UniProt Q96RI1); test: cell-based
T1 sequence (Q96RI1 1-486): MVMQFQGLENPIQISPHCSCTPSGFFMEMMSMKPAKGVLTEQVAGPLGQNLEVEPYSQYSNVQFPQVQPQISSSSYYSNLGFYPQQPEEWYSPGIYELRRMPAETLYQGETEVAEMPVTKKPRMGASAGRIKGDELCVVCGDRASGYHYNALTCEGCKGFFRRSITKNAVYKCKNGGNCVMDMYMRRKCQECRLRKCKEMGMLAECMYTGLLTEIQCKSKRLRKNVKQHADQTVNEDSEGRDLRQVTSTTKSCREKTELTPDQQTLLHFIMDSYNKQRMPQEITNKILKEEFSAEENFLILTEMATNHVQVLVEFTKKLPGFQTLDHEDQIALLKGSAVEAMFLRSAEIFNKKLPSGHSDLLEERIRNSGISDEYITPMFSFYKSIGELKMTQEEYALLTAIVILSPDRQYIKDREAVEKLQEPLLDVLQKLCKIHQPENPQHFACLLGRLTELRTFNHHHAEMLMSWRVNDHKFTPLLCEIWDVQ
T1 sequence (P19793 1-462 partner): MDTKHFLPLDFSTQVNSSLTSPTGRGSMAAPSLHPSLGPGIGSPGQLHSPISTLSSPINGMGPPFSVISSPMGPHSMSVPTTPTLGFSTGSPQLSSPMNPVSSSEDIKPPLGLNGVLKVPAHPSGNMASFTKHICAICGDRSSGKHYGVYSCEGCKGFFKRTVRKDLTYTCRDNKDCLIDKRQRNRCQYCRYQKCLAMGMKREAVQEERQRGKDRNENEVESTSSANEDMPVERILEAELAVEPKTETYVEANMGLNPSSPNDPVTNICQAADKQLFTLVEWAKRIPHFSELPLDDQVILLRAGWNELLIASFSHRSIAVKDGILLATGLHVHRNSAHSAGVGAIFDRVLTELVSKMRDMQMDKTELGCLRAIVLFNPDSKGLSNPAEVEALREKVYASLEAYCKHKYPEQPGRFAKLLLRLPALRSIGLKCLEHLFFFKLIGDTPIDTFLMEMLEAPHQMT

medaka FXRα2 [2] = molecular target: T2, medaka FXRα2 (Oryzias latipes, UniProt H2M6M7); test: Transient transactivation luciferase assay in HEK293T cells, antagonist mode; type: cell-based; conditions: Antagonists, in the presence of GW4064
T2 sequence (H2M6M7 1-485): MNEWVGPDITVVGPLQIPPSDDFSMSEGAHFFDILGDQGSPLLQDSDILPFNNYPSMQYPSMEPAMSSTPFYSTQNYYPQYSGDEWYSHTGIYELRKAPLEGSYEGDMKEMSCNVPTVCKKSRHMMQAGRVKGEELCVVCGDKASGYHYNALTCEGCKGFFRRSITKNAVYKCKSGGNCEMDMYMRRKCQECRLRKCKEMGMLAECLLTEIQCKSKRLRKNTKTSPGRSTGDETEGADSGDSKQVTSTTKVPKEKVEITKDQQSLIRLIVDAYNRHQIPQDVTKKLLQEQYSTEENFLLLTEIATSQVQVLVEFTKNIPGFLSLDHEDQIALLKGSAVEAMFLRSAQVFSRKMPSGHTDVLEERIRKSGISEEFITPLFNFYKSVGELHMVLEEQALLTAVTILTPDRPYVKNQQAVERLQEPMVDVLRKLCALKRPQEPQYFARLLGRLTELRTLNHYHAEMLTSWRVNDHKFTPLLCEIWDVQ

Human FXRa [3] = conditions: Antagonists, cited from earlier work; for AC50: Tox21 qHTS, ref US EPA CompTox Chemicals Dashboard; for Tox21 Results Human FXRa Activity Human FXRa: Hsu et al. 2016
human FXRα [4] = molecular target: T1, human FXRα; type: cell-based
medaka FXRα2 [5] = molecular target: T2, medaka FXRα2; test: Transient transactivation luciferase assay in HEK293T cells, agonist mode; type: cell-based
Human FXRa [6] = conditions: Agonists, cited from earlier work
medaka larvae = test: Toxicity to medaka larvae during in vivo exposure; design: species or system Medaka (Oryzias latipes); conditions: between 0.5 and 10 µM
[7] = molecular target: NR box of human PGC1α fused to the yeast Gal4 DNA-binding domain (pM-PGC1α) (human) (UniProt Q9UBK2); test: two-hybrid
Sequence of NR box of human PGC1α fused to the yeast Gal4 DNA-binding domain (pM-PGC1α) (human) (Q9UBK2 whole entry, the tested form may be a part): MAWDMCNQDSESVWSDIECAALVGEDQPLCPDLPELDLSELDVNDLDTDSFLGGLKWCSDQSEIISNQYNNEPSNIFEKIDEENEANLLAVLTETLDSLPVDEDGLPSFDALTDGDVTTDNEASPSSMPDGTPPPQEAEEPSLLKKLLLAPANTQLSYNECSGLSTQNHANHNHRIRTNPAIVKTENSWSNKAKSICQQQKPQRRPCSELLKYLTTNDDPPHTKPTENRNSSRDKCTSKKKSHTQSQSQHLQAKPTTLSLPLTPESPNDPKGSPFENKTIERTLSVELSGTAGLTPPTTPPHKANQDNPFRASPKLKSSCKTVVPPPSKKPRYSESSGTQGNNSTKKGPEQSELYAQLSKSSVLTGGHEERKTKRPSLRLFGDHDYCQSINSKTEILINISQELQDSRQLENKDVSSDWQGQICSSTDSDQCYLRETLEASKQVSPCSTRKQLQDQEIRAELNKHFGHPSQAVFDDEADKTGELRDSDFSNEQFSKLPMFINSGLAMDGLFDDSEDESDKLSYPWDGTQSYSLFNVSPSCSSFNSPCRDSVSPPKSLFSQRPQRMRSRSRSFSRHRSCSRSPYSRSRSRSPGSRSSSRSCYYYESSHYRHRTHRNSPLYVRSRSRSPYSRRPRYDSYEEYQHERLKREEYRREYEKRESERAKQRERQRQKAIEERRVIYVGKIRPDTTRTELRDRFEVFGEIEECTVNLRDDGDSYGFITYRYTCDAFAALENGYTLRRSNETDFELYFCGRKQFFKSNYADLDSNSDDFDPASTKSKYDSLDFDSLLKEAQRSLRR

[8] = molecular target: NR box of human PGC1α fused to the yeast Gal4 DNA-binding domain (pM-PGC1α) (human) (UniProt Q9UBK2); test: two-hybrid; remark: listed apart in the source
[9] = read-out: Current Study Human FXRa AC50
[10] = Tox21 qHTS, ref US EPA CompTox Chemicals Dashboard
[11] = Agonists, HEK293T, 24 h, listed as maleic hydrazide
[12] = Agonists, HEK293T, 24 h, listed as prometon

Q: What does the source list for `Cc1c(COC(=O)[C@@H]2[C@H](/C=C(\Cl)C(F)(F)F)C2(C)C)cccc1-c1ccccc1` (racemic) [Bifenthrin]?
A: AC50 (human FXRα [1]): 34.6 µM; Current Study Human FXRa Activity Human FXRa (human FXRα [1]): Active; EC50 (human FXRα [1]): 34.6 µM; Current Study Medaka FXRa2 Activity Medaka FXRa2 (medaka FXRα2 [2]): exhibited antagonist activity; also recorded: Active; AC50 (Human FXRa [3]): 13.3 µM; Tox21 Results Human FXRa Activity Human FXRa (Human FXRa [3]; ref Tox21 dataset): Active; Tox21 Results Human FXRa AC50 (Human FXRa [3]; ref Tox21 dataset): 4.96 µM

Q: With `CCC(C)(c1ccc(O)cc1)c1ccc(O)cc1` [Bisphenol B] as the molecule, how does the AC50 (human FXRα [1]) read?
A: Its AC50 is 11.9 µM.

Q: And the “Current Study Human FXRa Activity Human FXRa” value (human FXRα [1])?
A: The value was “Active”.

Q: What about the EC50 (human FXRα [1]) of the same molecule?
A: The EC50 was 11.9 µM.

Q: And the “Current Study Medaka FXRa2 Activity Medaka FXRa2” value (medaka FXRα2 [2])?
A: Its value is “Active”.

Q: And the “Current Study Medaka FXRa2 Activity Medaka FXRa2” value (medaka FXRα2 [2]; listed as bisphenol B)?
A: The value was “exhibited antagonist activity”.

Q: And the AC50 (Human FXRa [3])?
A: Its AC50 is 57.2 µM.

Q: What about the “Tox21 Results Human FXRa Activity Human FXRa” value (Human FXRa [3]; ref Tox21 dataset) of the same molecule?
A: Its value is “Active”.

Q: Which “Current Study Human FXRa Activity Human FXRa” value (human FXRα [4]) does the source give for `C[C@@H]1C[C@H]2O[C@@]3(O[C@@H]2C(C)(C)O)[C@H](O)[C@@]2(C)[C@@H]4CC[C@H]5C(C)(C)[C@@H](O[C@@H]6OC[C@@H](O)[C@H](O)[C@H]6O)CC[C@@]56C[C@@]46CC[C@]2(C)[C@@H]13` [Cimicifugoside] here?
A: The value was “Active”.

Q: What about the AC50 (human FXRα [4]; [9]) of the same molecule?
A: The AC50 was 9.8 µM.

Q: What about the “Current Study Medaka FXRa2 Activity Medaka FXRa2” value (medaka FXRα2 [5]; Agonists, HEK293T, 24 h) of the same molecule?
A: Its value is “Active”.

Q: What about the AC50 (medaka FXRα2 [5]; read-out: Current Study Medaka FXRa2 AC50, Agonists, HEK293T, 24 h) of the same molecule?
A: The AC50 was > 100 µM.

Q: And the AC50 (Human FXRa [6]; [10])?
A: The AC50 was 5 µM.

Q: And the “Activity Decision” value (Human FXRa [6]; [10])?
A: The value was “Active”.

Q: And the “Tox21 Results Human FXRa AC50” value (Human FXRa [6]; ref Tox21 dataset)?
A: The value was 5.52 µM.

Q: And the “Tox21 Results Human FXRa Activity Human FXRa” value (Human FXRa [6]; ref Tox21 dataset)?
A: Its value is “Active”.

Q: With `COc1cc2c(c(OC)c1OC)-c1ccc(OC)c(=O)cc1[C@@H](NC(C)=O)CC2` [Colchicine, reference compound] as the molecule, how does the “Current Study Human FXRa Activity Human FXRa” value (human FXRα [1]) read?
A: The value was “Inactive”.

Q: And the “Current Study Medaka FXRa2 Activity Medaka FXRa2” value (medaka FXRα2 [2])?
A: Its value is “Inactive”.

Q: And the “Tox21 Results Human FXRa Activity Human FXRa” value (Human FXRa [3]; ref Tox21 dataset)?
A: Its value is “Inactive”.

Q: Which EC50 (medaka FXRα2 [5]) does the source give for `CC(C)c1onc(-c2c(Cl)cccc2Cl)c1COc1ccc(C=Cc2cccc(C(=O)O)c2)c(Cl)c1` [GW4064, 3-(2,6-Dichlorophenyl)-4-(3′-carboxy-2-chlorostilben-4-yl) oxymethyl-5-isopropylisoxazole, reference compound] here?
A: Its EC50 is 0.269 µM.

Q: What does the source list for `O=c1ccc(=O)[nH][nH]1` [Maleic hydrazide]?
A: Current Study Human FXRa Activity Human FXRa (human FXRα [4]; Agonists, HEK293T, 24 h): Inactive; Current Study Human FXRa Activity Human FXRa (human FXRα [4]; [11]): confirmed inactive; Current Study Medaka FXRa2 Activity Medaka FXRa2 (medaka FXRα2 [5]; Agonists, HEK293T, 24 h): Inactive; Current Study Medaka FXRa2 Activity Medaka FXRa2 (medaka FXRα2 [5]; [11]): confirmed as inactive; cytotoxicity / toxicity to medaka larvae in agonist exposures (medaka larvae): significant cytotoxicity; Activity Decision (Human FXRa [6]; [10]): Inactive; Tox21 Results Human FXRa Activity Human FXRa (Human FXRa [6]; ref Tox21 dataset): Inactive

Q: Which results are given for `CO/N=C1\C[C@]2(C[C@@H]3C[C@@H](C/C=C(\C)C[C@@H](C)/C=C/C=C4\CO[C@@H]5[C@H](O)C(C)=C[C@@H](C(=O)O3)[C@]45O)O2)O[C@H](/C(C)=C/C(C)C)[C@H]1C` [Moxidectin, reference compound]?
A: AC50 (human FXRα [1]): 12.5 µM; Current Study Human FXRa Activity Human FXRa (human FXRα [1]): Active; EC50 (human FXRα [1]): 12.5 µM; Current Study Medaka FXRa2 Activity Medaka FXRa2 (medaka FXRα2 [2]): Active; Tox21 Results Human FXRa Activity Human FXRa (Human FXRa [3]; ref Tox21 dataset): Active/Inactive

Q: With `O=C1OC(c2ccc(O)cc2)(c2ccc(O)cc2)c2ccccc21` [Phenolphthalein] as the molecule, how does the “cytotoxicity / toxicity to medaka larvae in agonist exposures” value (medaka larvae) read?
A: Its value is “significant cytotoxicity; also recorded: toxic to medaka larvae”.

Q: Which “Current Study Human FXRa Activity Human FXRa” value (human FXRα [4]; Agonists, HEK293T, 24 h) does the source give for `COc1nc(NC(C)C)nc(NC(C)C)n1` [Prometon] here?
A: Its value is “Inactive”.

Q: What about the “Current Study Human FXRa Activity Human FXRa” value (human FXRα [4]; [12]) of the same molecule?
A: Its value is “confirmed inactive”.

Q: What about the “Current Study Medaka FXRa2 Activity Medaka FXRa2” value (medaka FXRα2 [5]; Agonists, HEK293T, 24 h) of the same molecule?
A: Its value is “Inactive”.

Q: What about the “Current Study Medaka FXRa2 Activity Medaka FXRa2” value (medaka FXRα2 [5]; [12]) of the same molecule?
A: Its value is “confirmed as inactive”.

Q: What about the “Activity Decision” value (Human FXRa [6]; [10]) of the same molecule?
A: Its value is “Inactive”.

Q: What about the “Tox21 Results Human FXRa Activity Human FXRa” value (Human FXRa [6]; ref Tox21 dataset) of the same molecule?
A: The value was “Inactive”.

Q: With `CCCCCCCC(=O)OCC(COC(=O)CCCCCCC)OC(=O)CCCCCCC` [Tricaprylin] as the molecule, how does the “Current Study Human FXRa Activity Human FXRa” value (human FXRα [1]) read?
A: Its value is “Inactive”.

Q: What about the “Current Study Medaka FXRa2 Activity Medaka FXRa2” value (medaka FXRα2 [2]) of the same molecule?
A: The value was “Active”.

Q: And the “Current Study Medaka FXRa2 Activity Medaka FXRa2” value (medaka FXRα2 [2]; listed as tricaprylin)?
A: Its value is “exhibited antagonist activity”.

Q: And the “Tox21 Results Human FXRa Activity Human FXRa” value (Human FXRa [3]; ref Tox21 dataset)?
A: The value was “Inactive”.

Q: For `c1ccc(P(c2ccccc2)c2ccccc2)cc1` [Triphenylphosphine], which “cytotoxicity / toxicity to medaka larvae in agonist exposures” value (medaka larvae) is on record?
A: Its value is “significant cytotoxicity”.

Q: Which results are given for Ivermectin [reference compound]?
A: Current Study Human FXRa Activity Human FXRa (human FXRα [1]): Active; AC50 (human FXRα [1]; [9]): 2.35 µM; Current Study Medaka FXRa2 Activity Medaka FXRa2 (medaka FXRα2 [2]): Active; AC50 (medaka FXRα2 [2]; read-out: Current Study Medaka FXRa2 AC50): 11.2 µM; Tox21 Results Human FXRa Activity Human FXRa (Human FXRa [3]; ref Tox21 dataset): Active

Q: With “VP16 activation domain fused to medaka FXRα2 (pVP16-mFXRα2) (receptor)” as the molecule, how does the recruitment with moxidectin, percent (reference as for human FXRα: GW4064 alone) [7] read?
A: Its recruitment with moxidectin, percent (reference as for human FXRα: GW4064 alone) is 126%.

B1: VP16 activation domain fused to full-length human FXRα (pVP16-hFXRα) (receptor)
chain: MVMQFQGLENPIQISPHCSCTPSGFFMEMMSMKPAKGVLTEQVAGPLGQNLEVEPYSQYSNVQFPQVQPQISSSSYYSNLGFYPQQPEEWYSPGIYELRRMPAETLYQGETEVAEMPVTKKPRMGASAGRIKGDELCVVCGDRASGYHYNALTCEGCKGFFRRSITKNAVYKCKNGGNCVMDMYMRRKCQECRLRKCKEMGMLAECMYTGLLTEIQCKSKRLRKNVKQHADQTVNEDSEGRDLRQVTSTTKSCREKTELTPDQQTLLHFIMDSYNKQRMPQEITNKILKEEFSAEENFLILTEMATNHVQVLVEFTKKLPGFQTLDHEDQIALLKGSAVEAMFLRSAEIFNKKLPSGHSDLLEERIRNSGISDEYITPMFSFYKSIGELKMTQEEYALLTAIVILSPDRQYIKDREAVEKLQEPLLDVLQKLCKIHQPENPQHFACLLGRLTELRTFNHHHAEMLMSWRVNDHKFTPLLCEIWDVQ
Q: Which recruitment with moxidectin and GW4064, percent of that with GW4064 alone [8] does the source give for B1 here?
A: The recruitment with moxidectin and GW4064, percent of that with GW4064 alone was 132%.
